Measured values published in patent US8440720B2, “Methods of use of antiviral compounds” (Influmedix, Inc., priority 2009, dated 2013).

molecular target: T1, M2(S31) (Influenza A virus, UniProt P0DOF5); assay: Cell-free electrophysiology of M2 proton channels on solid supported membranes (IonGate SURFE2R); assay type: biochemical; settings: 25 μM compound, activation by pH jump 7.0 to 6.0, read-out: IonGate_M2(S31)_Screen % Inhibition at 25 μM
T1 construct: expressed in transfected cells; host or cells: CHO cell membranes
T1 sequence (P0DOF5 whole entry): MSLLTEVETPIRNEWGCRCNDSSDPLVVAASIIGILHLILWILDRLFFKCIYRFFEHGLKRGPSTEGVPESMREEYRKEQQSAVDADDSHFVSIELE

**Q.** With `NCC(O)C12CC3CC(CC(C3)C1)C2` (racemic) [Cpd 5] as the compound, how does the inhibition at 25 µM read?
**A.** 51 to 95%

**Q.** How did the inhibition at 25 µM turn out when `c1ncn(C23CC4CC(CC(C4)C2)C3)n1` [Cpd 1] was run?
**A.** 11 to 50%

**Q.** How did the inhibition at 25 µM turn out when `c1cn(C23CC4CC(CC(C4)C2)C3)cn1` [Cpd 2] was run?
**A.** 11 to 50%

**Q.** For `Nc1nc(N)n(C23CC4CC(CC(C4)C2)C3)n1` [Cpd 3], which inhibition at 25 µM is on record?
**A.** 11 to 50%

**Q.** How did the inhibition at 25 µM turn out when `Nc1ccn(C23CC4CC(CC(C4)C2)C3)n1` [Cpd 4] was run?
**A.** 11 to 50%

**Q.** Which inhibition at 25 µM does the source give for `C1CNC(C23CC4CC(CC(C4)C2)C3)=N1` [Cpd 6] here?
**A.** 51 to 95%

**Q.** With `NCC12CC3CC(C1)C(O)C(C3)C2` (stereo not shown) [Cpd 7] as the compound, how does the inhibition at 25 µM read?
**A.** 11 to 50%

**Q.** How did the inhibition at 25 µM turn out when `NCC12CC3CC(C1)C(F)C(C3)C2` (stereo not shown) [Cpd 8, C-(4-Fluoro-adamantan-1-yl)-methylamine] was run?
**A.** 51 to 95%

**Q.** With `CC1(O)C2CC3CC1CC(CN)(C3)C2` (stereo not shown) [Cpd 11, 5-Aminomethyl-2-methyl-adamantan-2-ol] as the compound, how does the inhibition at 25 µM read?
**A.** 11 to 50%

**Q.** With `NC12CC3CC(C1)CC(F)(C3)C2` [Cpd 12] as the compound, how does the inhibition at 25 µM read?
**A.** 51 to 95%

**Q.** How did the inhibition at 25 µM turn out when `NC12CC3CC(C1)C(F)C(C3)C2` (stereo not shown) [Cpd 13, 4-Fluoroadamantan-1-amine] was run?
**A.** 51 to 95%

**Q.** Which inhibition at 25 µM does the source give for `NC12CC3CC(C1)C(O)C(C3)C2` (stereo not shown) [Cpd 14] here?
**A.** 11 to 50%

**Q.** Which inhibition at 25 µM does the source give for `NC12CC3CC(C1)C(=O)C(C3)C2` [Cpd 15] here?
**A.** 11 to 50%

**Q.** Which inhibition at 25 µM does the source give for `N#CC1C2CC3CC1CC(N)(C3)C2` (stereo not shown) [Cpd 16, 5-Amino-adamantane-2-carbonitrile] here?
**A.** 51 to 95%

**Q.** For `NC12CC3CC(C1)C(F)(F)C(C3)C2` [Cpd 17, 4,4-Difluoro-adamantan-1-ylamine], which inhibition at 25 µM is on record?
**A.** 11 to 50%

**Q.** With `CC1(F)C2CC3CC1CC(N)(C3)C2` (stereo not shown) [Cpd 18, 4-Fluoro-4-methyl-adamantan-1-ylamine] as the compound, how does the inhibition at 25 µM read?
**A.** 51 to 95%

**Q.** For `NC12CC3CC(C1)C(=S)C(C3)C2` [Cpd 19, 5-Amino-adamantane-2-thione], which inhibition at 25 µM is on record?
**A.** 11 to 50%

**Q.** How did the inhibition at 25 µM turn out when `NC12CC3CC(C1)C(S)C(C3)C2` (stereo not shown) [Cpd 20, 5-Amino-adamantane-2-thiol] was run?
**A.** 11 to 50%

**Q.** How did the inhibition at 25 µM turn out when `NC12CC3CC(C1)C(CF)C(C3)C2` (stereo not shown) [Cpd 21, 4-Fluoromethyl-adamantan-1-ylamine] was run?
**A.** 51 to 95%

**Q.** `NC12CC3CC(C1)C(=NO)C(C3)C2` [Cpd 23, 5-Amino-adamantan-2-one oxime] was tested. Which inhibition at 25 µM did it give?
**A.** 11 to 50%

**Q.** How did the inhibition at 25 µM turn out when `NC12CC3CC(C1)C1(OCCO1)C(C3)C2` [Cpd 24] was run?
**A.** 11 to 50%

**Q.** Which inhibition at 25 µM does the source give for `COC1C2CC3CC1CC(CN)(C3)C2` (stereo not shown) [Cpd 25, C-(4-Methoxy-adamantan-1-yl)-methylamine] here?
**A.** 51 to 95%

**Q.** With `N#CC1C2CC3CC1CC(CN)(C3)C2` (stereo not shown) [Cpd 26, 5-Aminomethyl-adamantane-2-carbonitrile] as the compound, how does the inhibition at 25 µM read?
**A.** 51 to 95%

**Q.** With `O=[N+]([O-])CC12CC3CC(C1)C(O)C(C3)C2` (stereo not shown) [Cpd 27, 5-Nitromethyl-adamantan-2-ol] as the compound, how does the inhibition at 25 µM read?
**A.** 11 to 50%

**Q.** `O=[N+]([O-])CC12CC3CC(C1)C(F)C(C3)C2` (stereo not shown) [Cpd 28, 4-Fluoro-1-nitromethyl-adamantane] was tested. Which inhibition at 25 µM did it give?
**A.** 11 to 50%

**Q.** For `NC12CC3CC(C1)CC(S)(C3)C2` [Cpd 29], which inhibition at 25 µM is on record?
**A.** 51 to 95%

**Q.** With `O=[N+]([O-])C12CC3CC(CC(F)(C3)C1)C2` [Cpd 30, 3-Fluoro-1-nitro-adamantane] as the compound, how does the inhibition at 25 µM read?
**A.** 1 to 10%

**Q.** `N=C(N)NC12CC3CC(CC(F)(C3)C1)C2` [Cpd 31, N-(3-Fluoro-adamantan-1-yl)-guanidine] was tested. Which inhibition at 25 µM did it give?
**A.** 11 to 50%

**Q.** With `COC12CC3CC(CC(N)(C3)C1)C2` [Cpd 32] as the compound, how does the inhibition at 25 µM read?
**A.** 1 to 10%

**Q.** For `NC12CC3CC(CC(C3)C1O)C2` (stereo not shown) [Cpd 34], which inhibition at 25 µM is on record?
**A.** 51 to 95%

**Q.** How did the inhibition at 25 µM turn out when `CC1(O)C2CC3CC(C2)CC1(N)C3` (stereo not shown) [Cpd 35, 1-Amino-2-methyl-adamantan-2-ol] was run?
**A.** 11 to 50%
